According to patent publication US20160090364A1, “PHTHALAZINONES AND ISOQUINOLINONES AS ROCK INHIBITORS” (BRISTOL-MYERS SQUIBB COMPANY, priority 2013, published 2016):
One block for each compound: values may come before it.

Tests used:
ROCK1 = ROCK1 (Homo sapiens, UniProt Q13464); assay: ROCK assay (Caliper LabChip peptide phosphorylation), ROCK1; type: biochemical; conditions: 5 μM ATP, 1.5 μM peptide substrate
Experimental: The effectiveness of compounds of the present invention as ROCK inhibitors can be determined in a 30 μL assay containing 20 mM HEPES, pH 7.5, 20 mM MgCl2, 0.015% Brij-35, 4 mM DTT, 5 μM ATP and 1.5 μM peptide substrate (FITC-AHA-[…]-OH). Compounds were dissolved in DMSO so that the final concentration of DMSO was <2%, and the reaction was initiated with Rho kinase variants. After incubation, the reaction was terminated by the addition of EDTA and the phosphorylated and non-phosphorylated peptides separated using a LabChip 3000 Reader (Caliper Life Sciences). […] Compounds were tested in dose-response format, and the inhibition of kinase activity was calculated at each concentration of compound. The inhibition data were fit using a curve-fitting program to determine the IC50; i.e., the concentration of compound required to inhibit 50% of kinase activity.”
Representative Examples were tested in the ROCK assay described above and found having ROCK inhibitory activity. A range of ROCK inhibitory activity (IC50 values) of ≦50 μM (50000 nM) was observed. Table A below lists the ROCK IC50 values measured for the following examples.

[1] = test system: IL-1 beta-induced coronary stenosis; conditions: porcine, long term treatment; cited from earlier work
[2] = test system: neointimal formation in rats; conditions: model similar to balloon injury; cited from earlier work

Sequence of ROCK1 (Q13464 whole entry, species assumed): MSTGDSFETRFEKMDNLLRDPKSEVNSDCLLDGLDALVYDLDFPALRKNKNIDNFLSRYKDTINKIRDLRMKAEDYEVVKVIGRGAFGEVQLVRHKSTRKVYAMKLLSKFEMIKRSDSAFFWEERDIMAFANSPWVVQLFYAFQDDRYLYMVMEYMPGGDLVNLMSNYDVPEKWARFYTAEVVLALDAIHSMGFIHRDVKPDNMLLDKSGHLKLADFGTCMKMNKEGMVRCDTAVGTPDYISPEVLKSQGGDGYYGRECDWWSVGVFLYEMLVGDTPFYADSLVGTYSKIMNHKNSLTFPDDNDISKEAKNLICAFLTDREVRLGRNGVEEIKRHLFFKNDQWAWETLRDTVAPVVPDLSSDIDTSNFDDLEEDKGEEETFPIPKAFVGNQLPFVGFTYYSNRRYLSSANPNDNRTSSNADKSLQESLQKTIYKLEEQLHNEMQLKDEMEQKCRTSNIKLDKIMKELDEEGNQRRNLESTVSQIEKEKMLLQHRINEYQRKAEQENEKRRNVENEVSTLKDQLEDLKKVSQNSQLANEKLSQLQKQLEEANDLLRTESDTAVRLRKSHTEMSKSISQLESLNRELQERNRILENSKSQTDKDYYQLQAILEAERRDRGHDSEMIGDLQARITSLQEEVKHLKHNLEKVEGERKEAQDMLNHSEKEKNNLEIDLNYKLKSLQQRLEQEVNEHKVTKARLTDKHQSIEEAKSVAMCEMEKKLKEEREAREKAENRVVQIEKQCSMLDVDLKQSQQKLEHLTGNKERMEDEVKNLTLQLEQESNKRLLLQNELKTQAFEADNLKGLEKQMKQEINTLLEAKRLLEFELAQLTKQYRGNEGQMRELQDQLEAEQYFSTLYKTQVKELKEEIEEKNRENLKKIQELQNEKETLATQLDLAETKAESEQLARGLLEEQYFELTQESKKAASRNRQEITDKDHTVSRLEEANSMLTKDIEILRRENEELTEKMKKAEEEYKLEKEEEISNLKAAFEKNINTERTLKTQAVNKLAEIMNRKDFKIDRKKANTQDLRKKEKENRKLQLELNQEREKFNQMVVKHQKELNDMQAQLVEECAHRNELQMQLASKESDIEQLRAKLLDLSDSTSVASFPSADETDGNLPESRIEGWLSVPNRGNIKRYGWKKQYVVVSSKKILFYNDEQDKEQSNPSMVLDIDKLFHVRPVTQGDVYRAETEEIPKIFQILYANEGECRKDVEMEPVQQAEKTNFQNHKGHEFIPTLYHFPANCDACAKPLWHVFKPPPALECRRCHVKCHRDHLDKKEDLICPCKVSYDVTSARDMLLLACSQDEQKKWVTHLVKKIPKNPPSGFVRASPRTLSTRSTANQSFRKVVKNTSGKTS

- IC50 (ROCK1): ≥ 50 µM
SMILES: O=C(Oc1ccc(-c2n[nH]c(=O)c3ccccc23)cc1)N1CCC(c2ccccc2)C1 (stereo not shown) [Example 69, 4-(4-oxo-3,4-dihydrophthalazin-1-yl)phenyl 3-phenylpyrrolidine-1-carboxylate]

SMILES: O=S(=O)(c1cccc2cnccc12)N1CCCNCC1 [fasudil]
- coronary constrictive remodeling [1]: promote a regression of coronary constrictive remodeling
- coronary stenosis [1]: progressively reduce coronary stenosis

SMILES: C[C@@H](N)[C@H]1CC[C@H](C(=O)Nc2ccncc2)CC1 [Example Y-27632, Y-27632]
- neointimal formation [2]: inhibited neointimal formation
